Experimental data taken from US10538532B2, “Hepatitis B antiviral agents” (ENANTA PHARMACEUTICALS, INC., priority 2016, dated 2020).
Where two headings read alike, the source gives them in different places.

Columns and labels:
HBV = test: HepAD38 antiviral assay: reduction of viral product accumulation (virion DNA by qPCR, HBsAg or HBeAg by ELISA); type: cell-based, hepatitis B virus; settings: HepAD38 cells, five days after compound addition, concentration reducing viral product accumulation by 50% relative to no drug controls, read-out: HepAD38 EC50
Summary of the method: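 EC50 values represent 50% reduction of viral product accumulation in lysates or supernatants relative to untreated controls, with virion DNA read by qPCR and HBsAg/HBeAg by ELISA. Measurements followed 5 days of treatment, or 8 days with compound renewed on d2 and d5. Cells were tetracycline-depleted HepAD38 at 35,000/well, dosed with a 1:200 dilution of DMSO stocks.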

[1] = Compound toxicity, ATPLite total ATP levels; type: cell-based; settings: human, HepAD38 cells, three days after compound addition, concentration reducing total ATP levels by 50% relative to no drug controls
Procedure: Methods: HepAD38 cells are maintained as previously reported (Ladner et al, Antimicrob. Agents Chemother. 1997, […], 1715). Briefly, cells are passaged upon attaining confluency in DMEM/F12 media in the presence of 10% FBS, Penn/Strep, 250 μg/mL G418, and 1 ug/ml tetracycline. Novel compounds are screened by first washing cells three times with PBS to remove tetracycline, and plating in 96 well plates at 35,000 cells/well. Compounds dissolved in DMSO are then diluted 1:200 into wells containing cells. Five days after compound addition, material is harvested for analysis. For an extended 8 day analysis, cells are plated and treated as described above, but media and compound are refreshed on d2 and d5 post initial treatment.
Compound toxicity is evaluated by seeding cells at 15,000 cells/well and treating with compound as described above.

[2] = Hepatitis B virus, HePAD38, 120 h

SMILES	EC50 (HBV; [2]) [nM]	CC50 at 3 days ([1]; class symbols) [nM]	CC50 at 3 days ([1]; numeric bounds) [nM]	EC50 (HBV) [nM]
O=C(Nc1cc(F)c(F)c(F)c1)c1ccc(Cl)c(S(=O)(=O)[C@H]2CC[C@H](O)CC2)c1 [Example 3]	100 to 400	> 25000		
O=C(Nc1cc(F)c(F)c(F)c1)c1ccc(Cl)c(S(=O)(=O)[C@H]2CC[C@@H](O)CC2)c1 [Example 4]	100 to 400	> 25000		
O=C(Nc1cc(F)c(F)c(F)c1)c1ccc(Cl)c(S(=O)(=O)CCCO)c1 [Example 7]	> 400	> 25000		
O=C(Nc1cc(F)c(F)c(F)c1)c1ccc(Cl)c(S(=O)(=O)[C@]2(F)CC[C@H](O)CC2)c1 [Example 8]	100 to 400	10000 to 25000		
O=C(Nc1cc(F)c(F)c(F)c1)c1ccc(Cl)c(S(=O)(=O)[C@]2(F)CC[C@@H](O)CC2)c1 [Example 9]	100 to 400	10000 to 25000		
C[C@]1(S(=O)(=O)c2cc(C(=O)Nc3cc(F)c(F)c(F)c3)ccc2Cl)CC[C@@H](O)CC1 [Example 16]	100 to 400	> 25000		
C[C@]1(S(=O)(=O)c2cc(C(=O)Nc3cc(F)c(F)c(F)c3)ccc2Cl)CC[C@H](O)CC1 [Example 17]	100 to 400	> 25000		
O=C(Nc1cc(F)c(F)c(F)c1)c1ccc(Cl)c(S(=O)(=O)Cc2cccnc2)c1 [Example 45]	100 to 400	> 25000		
O=C(Nc1cc(F)c(F)c(F)c1)c1ccc(Cl)c(S(=O)(=O)Cc2ccncc2)c1 [Example 46]	100 to 400	> 25000		
O=C(Nc1cc(F)c(F)c(F)c1)c1ccc(Cl)c(S(=O)(=O)Cc2ccccn2)c1 [Example 48]	> 400	> 25000		
O=C(Nc1cc(F)c(F)c(F)c1)c1ccc(Cl)c(S(=O)(=O)[C@H]2C3CCC2C[C@](O)(CO)C3)c1 [Example 60]	< 100	> 25000		
CC(c1ccncc1)S(=O)(=O)c1cc(C(=O)Nc2cc(F)c(F)c(F)c2)ccc1Cl (stereo not shown) [Example 80]	< 100	10000 to 25000		
O=C(Nc1cc(F)c(F)c(F)c1)c1ccc(Cl)c(S(=O)(=O)C2CC[C@H](O)[C@@H](O)CC2)c1 [Example 84]	< 100	> 25000		
CC(=O)[C@]1(O)CC2CC[C@@H](C1)[C@H]2S(=O)(=O)c1cc(C(=O)Nc2cc(F)c(F)c(F)c2)ccc1Cl [Example 150]	< 100	10000 to 25000		
CN(C)C[C@]1(O)CC2CC[C@@H](C1)[C@H]2S(=O)(=O)c1cc(C(=O)Nc2cc(F)c(F)c(F)c2)ccc1Cl [Example 154]	< 100	< 10000		
CC1=NO[C@@]2(C1)CC1CC[C@@H](C2)[C@H]1S(=O)(=O)c1cc(C(=O)Nc2cc(F)c(F)c(F)c2)ccc1Cl [Example 188]	< 100		> 12500	
O=C(Nc1cc(F)c(F)c(F)c1)c1ccc(Cl)c(S(=O)(=O)[C@H]2C3CC[C@H]2C[C@](O)(c2cc(-c4ccccc4)on2)C3)c1 [Example 220]	< 100	< 10000		
C[C@]1(O)C2CCC1C[C@@H](S(=O)(=O)c1cc(C(=O)Nc3cc(F)c(F)c(F)c3)ccc1Cl)C2 [Example 246]	100 to 400	10000 to 25000		
CC[C@]1(O)C2CCC1C[C@@H](S(=O)(=O)c1cc(C(=O)Nc3cc(F)c(F)c(F)c3)ccc1Cl)C2 [Example 252]	< 100		> 6250	
C[C@]1(O)C2CCC1C[C@H](S(=O)(=O)c1cc(C(=O)Nc3cc(F)c(F)c(F)c3)ccc1Cl)C2 [Example 253]		> 25000		< 100
O=C(Nc1cc(F)c(F)c(F)c1)c1ccc(Cl)c(S(=O)(=O)[C@H]2CC3CCC(C2)[C@]3(O)Cn2cccn2)c1 [Example 256]	< 100		> 12500	
[N-]=[N+]=NC[C@]1(O)C2CCC1C[C@@H](S(=O)(=O)c1cc(C(=O)Nc3cc(F)c(F)c(F)c3)ccc1Cl)C2 [Example 257]	< 100	> 25000		
[N-]=[N+]=NC[C@]1(O)C2CCC1C[C@H](S(=O)(=O)c1cc(C(=O)Nc3cc(F)c(F)c(F)c3)ccc1Cl)C2 [Example 258]	< 100		> 12500	
CS(=O)(=O)NC[C@]1(O)C2CCC1C[C@@H](S(=O)(=O)c1cc(C(=O)Nc3cc(F)c(F)c(F)c3)ccc1Cl)C2 [Example 259]	< 100		> 12500	
O=C1NC[C@]2(O1)C1CCC2C[C@@H](S(=O)(=O)c2cc(C(=O)Nc3cc(F)c(F)c(F)c3)ccc2Cl)C1 [Example 260]	< 100	> 25000		

SMILES	EC50 (HBV; [2]) [nM]	CC50 at 3 days ([1]; class symbols) [nM]	CC50 at 3 days ([1]; numeric bounds) [nM]	EC50 (HBV) [nM]
C=C[C@]1(O)CC2CC[C@@H](C1)[C@H]2S(=O)(=O)c1cc(C(=O)Nc2cc(F)c(F)c(F)c2)ccc1Cl [Example 267]	< 100	> 25000		
[N-]=[N+]=NC[C@@]1(O)CC2CC[C@@H](C1)[C@H]2S(=O)(=O)c1cc(C(=O)Nc2cc(F)c(F)c(F)c2)ccc1Cl [Example 271]	< 100		> 12500	
NC(=O)OC[C@@H]1CC2CC[C@@H](C1)[C@H]2S(=O)(=O)c1cc(C(=O)Nc2cc(F)c(F)c(F)c2)ccc1Cl [Example 272]	< 100		> 12500	
CS(=O)(=O)NC[C@]1(O)C2CCC1C[C@H](S(=O)(=O)c1cc(C(=O)Nc3cc(F)c(F)c(F)c3)ccc1Cl)C2 [Example 273]	< 100		> 12500	
O=C1NC[C@]2(O1)C1CCC2C[C@H](S(=O)(=O)c2cc(C(=O)Nc3cc(F)c(F)c(F)c3)ccc2Cl)C1 [Example 274]	< 100	> 25000		
N#CC[C@]1(O)C2CCC1C[C@@H](S(=O)(=O)c1cc(C(=O)Nc3cc(F)c(F)c(F)c3)ccc1Cl)C2 [Example 275]	< 100	> 25000		
O=C(Nc1cc(F)c(F)c(F)c1)c1ccc(Cl)c(S(=O)(=O)[C@H]2CC3CCC(C2)[C@]3(O)Cc2nnn[nH]2)c1 [Example 276]	> 400	> 25000		
NC[C@@]1(O)CC2CC[C@@H](C1)[C@H]2S(=O)(=O)c1cc(C(=O)Nc2cc(F)c(F)c(F)c2)ccc1Cl [Example 277]	100 to 400	< 10000		
CCS(=O)(=O)NC[C@@]1(O)CC2CC[C@@H](C1)[C@H]2S(=O)(=O)c1cc(C(=O)Nc2cc(F)c(F)c(F)c2)ccc1Cl [Example 278]	100 to 400	> 25000		
O=C(Nc1cc(F)c(F)c(F)c1)c1ccc(Cl)c(S(=O)(=O)[C@H]2C3CC[C@H]2C[C@@](O)(CNS(=O)(=O)C2CC2)C3)c1 [Example 279]	100 to 400	> 25000		
CC(=O)NC[C@@]1(O)CC2CC[C@@H](C1)[C@H]2S(=O)(=O)c1cc(C(=O)Nc2cc(F)c(F)c(F)c2)ccc1Cl [Example 280]	100 to 400	> 25000		
O=C(Nc1cc(F)c(F)c(F)c1)c1ccc(Cl)c(S(=O)(=O)[C@H]2C3CC[C@H]2C[C@](O)(c2ncc[nH]2)C3)c1 [Example 281]	< 100	> 25000		
C[C@]1(O)CC2CC[C@@H](C1)[C@H]2S(=O)(=O)c1cc(C(=O)Nc2cc(F)c(F)c(F)c2)ccc1Cl [Example 282]	< 100	> 25000		
O=C(Nc1cc(F)c(F)c(F)c1)c1ccc(Cl)c(S(=O)(=O)[C@H]2C3CC[C@H]2C[C@@H](c2ncc[nH]2)C3)c1 [Example 283]	100 to 400	< 10000		
N#C[C@H]1CC2CC[C@@H](C1)[C@H]2S(=O)(=O)c1cc(C(=O)Nc2cc(F)c(F)c(F)c2)ccc1Cl [Example 284]	< 100		> 3120	
O=C1NC[C@]2(CC3CC[C@@H](C2)[C@H]3S(=O)(=O)c2cc(C(=O)Nc3cc(F)c(F)c(F)c3)ccc2Cl)O1 [Example 285]	100 to 400	> 25000		
[N-]=[N+]=NC[C@]1(O)CC2CC[C@@H](C1)[C@H]2S(=O)(=O)c1cc(C(=O)Nc2cc(F)c(F)c(F)c2)ccc1Cl [Example 286]	< 100	10000 to 25000		
O=C(Nc1cc(F)c(F)c(F)c1)c1ccc(Cl)c(S(=O)(=O)[C@H]2CC3CCC(C2)[C@@H]3O)c1 [Example 360]				< 100
O=C(Nc1cc(F)c(F)c(F)c1)c1ccc(Cl)c(S(=O)(=O)[C@H]2CC3CCC(C2)[C@]3(O)CC(O)CO)c1 (stereo partly shown) [Example 361]	< 100			
Cn1ccnc1[C@]1(O)C2CCC1C[C@@H](S(=O)(=O)c1cc(C(=O)Nc3cc(F)c(F)c(F)c3)ccc1Cl)C2 [Example 362]	< 100			
CC(C)(O)C(O)[C@]1(O)C2CCC1C[C@H](S(=O)(=O)c1cc(C(=O)Nc3cc(F)c(F)c(F)c3)ccc1Cl)C2 (stereo partly shown) [Example 363]	< 100			
CC(C)(C)OC(=O)N[C@@H](Cc1ccccc1)C(=O)NC[C@]1(O)C2CCC1C[C@@H](S(=O)(=O)c1cc(C(=O)Nc3cc(F)c(F)c(F)c3)ccc1Cl)C2 [Example 364]	< 100			
CC(C)(C)OC(=O)N1CCC[C@H]1C(=O)NC[C@]1(O)C2CCC1C[C@@H](S(=O)(=O)c1cc(C(=O)Nc3cc(F)c(F)c(F)c3)ccc1Cl)C2 [Example 365]	< 100			
N[C@@H](Cc1ccccc1)C(=O)NC[C@]1(O)C2CCC1C[C@@H](S(=O)(=O)c1cc(C(=O)Nc3cc(F)c(F)c(F)c3)ccc1Cl)C2 [Example 366]	100 to 400			
